# According to patent publication US6294568A, “5-arylpyrrole derivatives” (priority 1997, dated 2001):
# pIC50: −log10 of the molar value.
# Tests used:
# CaCo-2 cells = assay: Apoptosis Induction Test in CaCo-2 Cells; type: cell-based; details: 24 hours, propidium iodide staining, fluorescence microscope
# Procedure: CaCo-2 cells were adjusted in 10% FBS/DMEM/NEAA to 1.0×10^5 cells/ml concentration and then pipetted into a 6 well plate in an amount of 3 ml/well. The cells were cultured under the conditions of at 37° C. in 5% CO2 atmosphere for 24 hours to allow the cell adhesion. Only the medium solution (0.1% ethanol) was exchanged in the control group, and the compound of the invention (Preparation Example 1) group was transferred to culture mediums containing the compound adjusted to each of the specified concentrations, then the cells were cultured under the condition of at 37° C. in 5% CO2 atmosphere for 24 hours. Then the culture medium and the adhesive cells separated of the adhesion by trypsin were collected and centrifuged at 1000 rpm for 5 minutes to remove the supernatant. The cells were washed with PBS(-) and then 20 μl of 90% ethanol/0.5% triton×100/10mM EDTA/10mM Tris-HCl (pH7.4) and 5 μl of propidium iodide (1 μg/ml) were added thereto to stain the nucleuses. A drop of the stained cell solution was placed on a preparation glass to be examined by a fluorescence microscope at B range.
# Brewer's Yeast Fever = assay: Antipyretic Action Test With Respect To Brewer's Yeast Fever; type: in vivo, rats
# Procedure: The antipyretic action was measured as described in the following. A sensor was inserted into the rectum of each rats and the body temperature of one hour after the insertion was recorded as the basal body temperature. The rats were injected subcutaneously with 2 ml/body of 20% brewer's yeast at the region of back and, 18 hours after the injection, the intrafebrile body temperatures were measured. Rats who had shown not less than 0.75° C. of body temperature elevation were selected to whom the test samples was administered orally. The body temperatures of the selected rats were measured every one hour for the following 5 hours. The dosage of each of the test samples was 10 mg/kg.
# Subcute Toxicity Test = type: in vivo, SD rats; details: 100 mg/kg once daily for 14 days, male and female rats
# Procedure: The Subcute toxicity test was conducted as described in the following. SD rats (six each of male and female rats per group) were employed in the present test. The title compound (Preparation Example 1) was suspended in 0.5% methyl cellulose solution to be administered to the rats by a disposable feeding tube (manufactured by Fuchigami Kikai) once daily for 14 days. The dosage of the test samples was 100 mg/kg.
# Human COX-2 = target: T1, Human COX-2 (Homo sapiens, UniProt P35354); assay: Human COX-2 Inhibitory Activity Test (LPS-induced PGE2 in blood); type: cell-based
# T1 construct: endogenous in cells; host or cells: heparinised whole blood of a healthy human donor pretreated with aspirin, stimulated with LPS (own knowledge: COX-2 is induced in monocytes)
# T1 sequence (P35354 18-604): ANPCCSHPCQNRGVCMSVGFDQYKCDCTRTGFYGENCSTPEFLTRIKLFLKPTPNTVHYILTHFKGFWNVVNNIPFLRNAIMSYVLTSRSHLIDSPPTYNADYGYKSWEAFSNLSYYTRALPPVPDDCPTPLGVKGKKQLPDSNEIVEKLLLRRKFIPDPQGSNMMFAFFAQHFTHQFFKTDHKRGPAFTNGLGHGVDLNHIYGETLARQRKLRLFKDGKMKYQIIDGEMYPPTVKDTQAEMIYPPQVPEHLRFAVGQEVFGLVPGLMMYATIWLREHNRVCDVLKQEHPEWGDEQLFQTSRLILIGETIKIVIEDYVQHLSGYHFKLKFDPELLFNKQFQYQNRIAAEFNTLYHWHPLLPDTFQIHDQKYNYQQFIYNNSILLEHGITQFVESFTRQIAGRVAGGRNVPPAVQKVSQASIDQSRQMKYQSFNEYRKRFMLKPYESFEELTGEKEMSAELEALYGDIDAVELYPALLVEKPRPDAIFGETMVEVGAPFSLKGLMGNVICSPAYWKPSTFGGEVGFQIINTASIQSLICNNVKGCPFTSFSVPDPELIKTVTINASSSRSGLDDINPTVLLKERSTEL
# Procedure: COX-1 and COX-2 activities were measured according to the method of Patrignani et al. (J. Pharm. Exp. Ther. Vol. 271, 1705 (1994)).
# (2) COX-2 activity was measured in the following procedure. To blood collected from a healthy normal who had taken 330 mg of aspirin 48 hours before the blood collection in order to inhibit the COX-1 activity, 10 unit/ml of sodium heparin was added, and then pipetted into glass test tubes by 1 ml. 10 μg/ml of Lipopolysaccharide (LPS) was added thereto and the plasma obtained by the specified operation was stored at -40° C. until the measurement for the amount of prostaglandin E2 (PGE2). Test samples containing the test samples were treated in the same manner of operation as described above.
# (4) The measurement for the PGE2 content was conducted in the following procedure. In a part of 96 well plate coated with goat anti-mouse antibody, 2 wells were alloted respectively to a blank well, Non-specific Binding (NSB) well, Maximum Binding (B0) well, standard wells at seven concentrations of PGE2 (1000 pg/ml) in doubling dilution ranging from 1000-15.6 pg/ml. The rest of the wells were used for the sample measurement. EIA buffer was added to the NSB wells (100 μl) and to the B0 wells (50 μl), respectively. 50 μl of each of the standard dilution was added in an order from thinner to thicker concentrations. Each of the samples was added to the rest of the wells in an amount of 50 μl. Then, 50 μl of PGE2 tracer was added to each of the wells except for blank wells. Further, 50 μl PGE2 monoclonal antibody was added to each of the wells except for the NSB wells and blank wells, then the well plate was covered with a plastic film and the reaction continued at room temperature for 18 hours. When the reaction was terminated, the wells were washed 5 times with a wash buffer. 200 μl of Elman's reagent was added to each of the wells, and then the well plate was covered with a plastic film and developed for 60 minutes in a dark place. The absorbance at 405 nm was measured by an Immuno Reader (NJ-2000, manufactured by Nippon Intermed Co., Ltd.). From the measurement result, %B/B0 was calculated and, applying it to the approximation formula of Hill Plot, the concentration of the samples was determined to be 40 times concentration. The dilution was conducted with an EIA buffer throughout the Test Example 3.
structure (smiles),measurement,setting,value
"Cc1cc(-c2ccc(F)cc2)c(-c2ccc(S(C)(=O)=O)cc2)[nH]1 [Preparation Example 1, 4-(4-fluorophenyl)-2-methyl-5-(4-methylsulfonylphenyl)-1H-pyrrole]",cell apoptosis,CaCo-2 cells,cell apoptosis caused by the compound of the invention was observed
same,Body temperature 1 Hour After,"Brewer's Yeast Fever; 10 mg/kg oral, 1 hour after",37.98 °C
same,Body temperature 3 Hours After,"Brewer's Yeast Fever; 10 mg/kg oral, 3 hours after",37.10 °C
same,Body temperature 5 Hours After,"Brewer's Yeast Fever; 10 mg/kg oral, 5 hours after",37.13 °C
same,Intrafebrile Body Temperature,"Brewer's Yeast Fever; 18 hours after yeast injection, before administration, 10 mg/kg group",39.08 °C
same,Basal Body Temperature,"Brewer's Yeast Fever; one hour after sensor insertion, before yeast, 10 mg/kg group",37.54 °C
same,general symptoms and weight increase,Subcute Toxicity Test,neither of a change in the general symptoms nor an adverse affect on the weight increase was noted
same,pIC50,"Human COX-2; human blood, LPS, PGE2, IC50 from Hill Plot",6.02
same,COX-1/COX-2,Human COX-2; ratio of IC50 COX-1 to COX-2,683
